Laboratory results reported in ChEMBL document CHEMBL1201862, “PubChem BioAssay data set” (2004).
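Compound exposure: 48 hours, 5 concentrations, 96-well plates. At the GI50, growth is halved.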 Activity calls are given as the source filed them. Rule as the data show it: active = GI50 up to about 1.1 µM and inactive = higher.

Legend:
Test in all cases: inhibition of tumour cell growth, NCI panel, 48 h
ACHN = tested on: ACHN
SF-268 = tested on: SF-268
Malme-3M = tested on: Malme-3M
M14 = tested on: M14
CAKI-1 = tested on: CAKI-1
IGROV-1 = tested on: IGROV-1
EKVX = tested on: EKVX
CCRF-CEM = tested on: CCRF-CEM
HL-60 = tested on: HL-60
K562 = tested on: K562
UACC-62 = tested on: UACC-62
HCT-116 = tested on: HCT-116
A549 = tested on: A549
HCC 2998 = tested on: HCC 2998
SK-OV-3 = tested on: SK-OV-3
SR = tested on: SR

Measured: GI50

COc1cc(CCc2cccnc2)cc(OC)c1OC
inactive: ACHN > 100 µM | SF-268 > 100 µM | Malme-3M > 100 µM | M14 > 100 µM | CAKI-1 > 100 µM | IGROV-1 > 100 µM | EKVX > 100 µM | CCRF-CEM > 100 µM | HL-60 > 100 µM | K562 > 100 µM | UACC-62 > 100 µM | HCT-116 > 100 µM | A549 > 100 µM

CCOC(=O)[C-]([N+]#N)[Si](C)(C)C
inactive: ACHN > 100 µM | SF-268 21.6 µM | Malme-3M > 100 µM | CAKI-1 > 100 µM | IGROV-1 > 100 µM | HCC 2998 > 100 µM | UACC-62 72.4 µM | HCT-116 53.1 µM | A549 > 100 µM

CC(=O)Nc1c(Nc2ccccc2)[nH]c(C)nc1=S
inactive: ACHN > 100 µM | SF-268 > 100 µM | Malme-3M > 100 µM | M14 > 100 µM | CAKI-1 > 100 µM | SK-OV-3 > 100 µM | IGROV-1 > 100 µM | EKVX > 100 µM | CCRF-CEM > 100 µM | HL-60 > 100 µM | HCC 2998 > 100 µM | K562 > 100 µM | UACC-62 > 100 µM | A549 > 100 µM

Cc1ccc(Sc2ccc(C)cc2[N+](=O)[O-])c([N+](=O)[O-])c1
inactive: ACHN > 100 µM | SF-268 > 100 µM | Malme-3M > 100 µM | M14 > 100 µM | CAKI-1 > 10 µM | SK-OV-3 > 100 µM | IGROV-1 > 100 µM | EKVX > 100 µM | CCRF-CEM > 100 µM | HL-60 > 100 µM | HCC 2998 > 100 µM | K562 > 100 µM | UACC-62 > 100 µM | HCT-116 > 100 µM | A549 > 100 µM

NC(=S)N/N=C/c1cn(CCCl)c2ccccc12
inactive: SF-268 > 100 µM | Malme-3M > 100 µM | M14 56.4 µM | CAKI-1 18.7 µM | SK-OV-3 > 100 µM | IGROV-1 > 100 µM | EKVX 14.7 µM | CCRF-CEM 20.7 µM | HL-60 9.57 µM | K562 8.05 µM | UACC-62 30.2 µM | HCT-116 27.4 µM | SR 11 µM | A549 34.9 µM

CC12CP(=O)(c3ccccc3)CC1C2(Cl)Cl (configuration not stated)
inactive: M14 > 100 µM | SK-OV-3 > 100 µM | IGROV-1 > 100 µM | EKVX > 100 µM | CCRF-CEM > 100 µM | HL-60 > 10 µM | HCC 2998 > 100 µM | K562 > 100 µM | UACC-62 > 100 µM | HCT-116 > 100 µM | A549 > 100 µM

CN1C/C(=C\c2ccccc2)C2=NN(C(N)=S)[C@H](c3ccccc3)[C@@H]2C1
inactive: ACHN 76.7 µM | SF-268 > 100 µM | Malme-3M 36.6 µM | M14 95.1 µM | SK-OV-3 > 100 µM | IGROV-1 > 100 µM | EKVX > 100 µM | CCRF-CEM 45.6 µM | HL-60 21.7 µM | HCC 2998 > 100 µM | K562 36 µM | UACC-62 74.6 µM | HCT-116 37.3 µM | SR > 100 µM | A549 52 µM

O=C1C2C3C=C4c5ccccc5N(c5ccccc5)C4(C2C(=O)N1c1ccc(Cl)cc1)[C@H]1C(=O)N(c2ccc(Cl)cc2)C(=O)[C@@H]31 (some centres not stated)
inactive: Malme-3M > 100 µM | M14 35.7 µM | CAKI-1 14.7 µM | SK-OV-3 > 100 µM | IGROV-1 > 100 µM | EKVX > 100 µM | CCRF-CEM > 100 µM | HL-60 > 100 µM | K562 > 100 µM | UACC-62 > 100 µM | HCT-116 78.3 µM | SR > 100 µM | A549 > 100 µM

O=C(Nc1ccccc1)n1cc(-c2ccccn2)c(N2CCOCC2)n1
inactive: ACHN 36.6 µM | SF-268 > 100 µM | Malme-3M 2.54 µM | M14 8.91 µM | CAKI-1 13 µM | SK-OV-3 9.84 µM | IGROV-1 12 µM | EKVX > 100 µM | CCRF-CEM 5.48 µM | HL-60 2.44 µM | HCC 2998 21.7 µM | K562 3.58 µM | UACC-62 5.62 µM | HCT-116 4.29 µM | A549 18.8 µM

COc1ccccc1/N=N/c1c(-c2ccccc2)nn(C(=O)CC(=O)Nc2cccc(C)c2)c1-c1ccccc1
inactive: ACHN 28.4 µM | SF-268 39.4 µM | Malme-3M 45.6 µM | M14 14.7 µM | CAKI-1 23.3 µM | IGROV-1 24.7 µM | EKVX 41.2 µM | CCRF-CEM 15.2 µM | HL-60 15.3 µM | HCC 2998 42 µM | K562 15.7 µM | UACC-62 38.8 µM | HCT-116 28 µM | A549 26.5 µM

CC(C)OC(=O)C1Cc2c([nH]c3ccccc23)C(c2ccccc2)N1 (configuration not stated)
inactive: ACHN 93.8 µM | SF-268 56.9 µM | Malme-3M 25.7 µM | M14 81.7 µM | CAKI-1 > 100 µM | SK-OV-3 > 100 µM | IGROV-1 > 100 µM | EKVX 89.3 µM | CCRF-CEM 79.4 µM | HL-60 33 µM | HCC 2998 30.5 µM | K562 50.1 µM | UACC-62 > 100 µM | HCT-116 62.4 µM | A549 66.1 µM

C[N+](C)(C)CC(=O)N/N=C(\CCC(=O)NCCc1ccccc1)CC(=O)c1ccccc1
inactive: ACHN > 100 µM | SF-268 > 100 µM | Malme-3M > 100 µM | M14 > 100 µM | CAKI-1 > 100 µM | SK-OV-3 > 100 µM | IGROV-1 > 100 µM | EKVX > 100 µM | CCRF-CEM > 100 µM | HL-60 > 100 µM | HCC 2998 > 100 µM | K562 > 100 µM | UACC-62 > 100 µM | HCT-116 > 100 µM | A549 > 100 µM

CCOC12OC3=C(CC1CC1=C(CCC1=O)O2)C(=O)CC3 (configuration not stated)
inactive: SF-268 > 100 µM | Malme-3M > 100 µM | M14 > 100 µM | CAKI-1 > 100 µM | SK-OV-3 > 100 µM | IGROV-1 > 100 µM | EKVX > 100 µM | CCRF-CEM > 100 µM | HL-60 > 100 µM | K562 > 100 µM | UACC-62 > 100 µM | HCT-116 > 100 µM | SR > 100 µM | A549 > 100 µM

CC1OC(n2cc(C(F)(F)F)c(=O)[nH]c2=O)C=CC1=O (configuration not stated)
inactive: ACHN 17.5 µM | SF-268 39.2 µM | Malme-3M 18.4 µM | M14 22.9 µM | SK-OV-3 19.6 µM | IGROV-1 20 µM | HL-60 18.5 µM | HCC 2998 18.3 µM | K562 27.5 µM | UACC-62 21 µM | HCT-116 16.2 µM | SR 12.7 µM | A549 47.3 µM

CCOC(=O)/C(C#N)=C1/C(O)=C(C(=O)OC)C(C(=O)OC)=C1C(=O)OC.c1ccncc1
inactive: ACHN > 100 µM | SF-268 > 100 µM | Malme-3M > 100 µM | M14 > 100 µM | CAKI-1 > 100 µM | SK-OV-3 > 100 µM | IGROV-1 > 100 µM | EKVX > 100 µM | CCRF-CEM > 100 µM | HL-60 > 100 µM | HCC 2998 > 100 µM | K562 > 100 µM | UACC-62 > 100 µM | A549 > 100 µM

CC1=CC(=O)NP(=O)(Oc2ccc(C)cc2)N1 (configuration not stated)
inactive: ACHN > 100 µM | SF-268 > 100 µM | Malme-3M > 100 µM | M14 > 100 µM | CAKI-1 > 100 µM | SK-OV-3 > 100 µM | IGROV-1 > 100 µM | EKVX > 100 µM | CCRF-CEM > 100 µM | HL-60 > 100 µM | K562 > 100 µM | UACC-62 > 100 µM | HCT-116 > 100 µM | SR > 100 µM

O=C(C=P(c1ccccc1)(c1ccccc1)c1ccccc1)CC(=S)CC(=O)C=P(c1ccccc1)(c1ccccc1)c1ccccc1
inactive: ACHN 7.08 µM | SF-268 5.19 µM | Malme-3M 5.01 µM | M14 4.12 µM | CAKI-1 16.2 µM | SK-OV-3 3.95 µM | IGROV-1 4.66 µM | EKVX 21.6 µM | CCRF-CEM 3.24 µM | HL-60 1.98 µM | HCC 2998 3.85 µM | K562 2.47 µM | UACC-62 4.31 µM | HCT-116 2.86 µM | A549 4.17 µM

O=C1C2=C(CCCCC2)C2CCCCC12O (configuration not stated)
inactive: ACHN > 100 µM | SF-268 > 100 µM | Malme-3M > 100 µM | M14 > 100 µM | SK-OV-3 > 100 µM | IGROV-1 > 100 µM | EKVX > 100 µM | CCRF-CEM > 100 µM | HL-60 > 100 µM | HCC 2998 > 100 µM | K562 > 100 µM | UACC-62 > 100 µM | HCT-116 > 100 µM | SR > 100 µM | A549 > 100 µM

CC[C@H]1[C@@H](C)C=C[C@@H](C)N1S(=O)(=O)c1ccc(C)cc1
inactive: ACHN 67 µM | SF-268 75 µM | Malme-3M > 100 µM | M14 > 100 µM | CAKI-1 > 100 µM | SK-OV-3 > 100 µM | EKVX > 100 µM | CCRF-CEM > 100 µM | HL-60 18.5 µM | K562 89.9 µM | UACC-62 97.7 µM | HCT-116 51.6 µM | SR 66.5 µM | A549 > 100 µM
